Assay results taken from patent publication US11033539B2, “Compounds of formulas (VII), (VIII), (IX), (XI), (XII), (XIII), and (XIV) as muscarinic receptor 4(M4) antagonists for treating neurological diseases” (Neurocrine Biosciences, Inc., priority 2015, dated 2021).

Target: human M4 receptor (Homo sapiens (Human), UniProt P08173)
Experiment: Radioligand (tritiated N-methylscopolamine) binding assay, M4
Settings: Ki against the M4 receptor; membranes from CHO cells expressing human M4; tritiated N-methylscopolamine 1.5 nM; read-out: Ki
How it was run: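 Membranes from CHO cells expressing the receptor were incubated with 1.5 nM radioligand and twelve compound concentrations (10 μM to […]) for 90 min at 37 °C in 50 mM HEPES, 100 mM NaCl, 5 mM MgCl2, 1 mM EDTA, pH 7.4. Bound radioligand was collected by filtration and counted, and Ki was derived from inhibition.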

human M4 receptor, sequence (P08173 whole entry): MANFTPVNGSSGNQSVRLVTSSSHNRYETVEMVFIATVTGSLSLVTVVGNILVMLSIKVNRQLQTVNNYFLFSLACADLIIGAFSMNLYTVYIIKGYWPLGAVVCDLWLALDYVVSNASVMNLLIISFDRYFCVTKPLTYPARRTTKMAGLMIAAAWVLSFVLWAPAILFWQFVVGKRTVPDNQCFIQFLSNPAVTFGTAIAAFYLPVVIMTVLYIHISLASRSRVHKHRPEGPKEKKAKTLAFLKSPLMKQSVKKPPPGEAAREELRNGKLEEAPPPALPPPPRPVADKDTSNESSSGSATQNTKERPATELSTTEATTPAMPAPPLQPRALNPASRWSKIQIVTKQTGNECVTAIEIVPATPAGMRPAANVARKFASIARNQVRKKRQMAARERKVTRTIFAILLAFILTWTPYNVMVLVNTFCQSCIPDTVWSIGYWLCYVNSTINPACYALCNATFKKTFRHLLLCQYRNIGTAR

Row | Compound | Ki [nM]
1 | C[C@H]1CN(c2cc(F)c(F)c(F)c2)CCN1C(=O)NCCC1CCN(Cc2ccccc2)CC1 [4-24, (2S)-N-[2-(1-benzylpiperidin-4-yl)ethyl]-2-methyl-4-(3,4,5-trifluorophenyl)piperazine-1-carboxamide] | 10 to 100
2 | C[C@@H]1CN(c2ncc(C(F)(F)F)cn2)CCN1C(=O)NCCC1CCN(Cc2cncnc2)CC1 [6-39, (2R)-2-methyl-N-{2-[1-(pyrimidin-5-ylmethyl)piperidin-4-yl]ethyl}-4-[5-(trifluoromethyl)pyrimidin-2-yl]piperazine-1-carboxamide] | 100 to 1000
3 | Cc1nc(CN2CCC(CCNC(=O)N3CCN(c4cc(F)c(F)c(F)c4)C[C@H]3C)CC2)cs1 [6-12, (2R)-2-methyl-N-(2-{1-[(2-methyl-1,3-thiazol-4-yl)methyl]piperidin-4-yl}ethyl)-4-(3,4,5-trifluorophenyl)piperazine-1-carboxamide] | 10 to 100
4 | C[C@@H]1CN(c2cc(F)c(F)c(F)c2)CCN1C(=O)NCCC1CCN(Cc2csnn2)CC1 [6-8, (2R)-2-methyl-N-{2-[1-(1,2,3-thiadiazol-4-ylmethyl)piperidin-4-yl]ethyl}-4-(3,4,5-trifluorophenyl)piperazine-1-carboxamide] | 10 to 100
5 | C[C@@H]1CN(c2ncc(C#N)c(NCC(F)(F)F)n2)C[C@H](C)N1C(=O)NCCC1CCN(Cc2ccccc2)CC1 [5-4, (2S,6R)-N-[2-(1-benzylpiperidin-4-yl)ethyl]-4-{5-cyano-4-[(2,2,2-trifluoroethyl)amino]pyrimidin-2-yl}-2,6-dimethylpiperazine-1-carboxamide] | 10 to 100
6 | C[C@@H]1CN(c2ncc(C(F)(F)F)cn2)CCN1C(=O)NCCC1CCN(Cc2cccnc2)CC1 [6-32, (2R)-2-methyl-N-{2-[1-(pyridin-3-ylmethyl)piperidin-4-yl]ethyl}-4-[5-(trifluoromethyl)pyrimidin-2-yl]piperazine-1-carboxamide] | 10 to 100
7 | O=C(NCCC1CCN(Cc2ccccc2)CC1)N1CCC(c2csc3ccccc23)CC1 [8-10, 4-(1-benzothiophen-3-yl)-N-[2-(1-benzylpiperidin-4-yl)ethyl]piperidine-1-carboxamide] | 10 to 100
8 | Cc1ccc(N2CCN(C(=O)NCCC3CCN(Cc4ccccc4)CC3)[C@H](C)C2)cn1 [4-9, (2R)-N-[2-(1-benzylpiperidin-4-yl)ethyl]-2-methyl-4-(6-methylpyridin-3-yl)piperazine-1-carboxamide] | 100 to 1000
9 | N#Cc1cccc(N2CCC(NC(=O)NCCC3CCN(Cc4ccccc4)CC3)CC2)c1 [8-40, 3-[2-(1-benzylpiperidin-4-yl)ethyl]-1-[1-(3-cyanophenyl)piperidin-4-yl]urea] | 100 to 1000
10 | COC(=O)c1cc(Cl)nc(N2CCN(C(=O)NCCC3CCN(Cc4ccccc4)CC3)[C@H](C)C2)n1 [5-11, methyl 2-[(3R)-4-{[2-(1-benzylpiperidin-4-yl)ethyl]carbamoyl}-3-methylpiperazin-1-yl]-6-chloropyrimidine-4-carboxylate] | 100 to 1000
11 | N#Cc1cc(Cl)ccc1N1CCN(C(=O)NCCC2CCN(Cc3ccccc3)CC2)CC1 [8-7, N-[2-(1-benzylpiperidin-4-yl)ethyl]-4-(4-chloro-2-cyanophenyl)piperazine-1-carboxamide] | 100 to 1000
12 | O=C(NCCC1CCN(Cc2ccccc2)CC1)N1CCC(n2nnc3ccccc32)CC1 [8-46, 4-(1H-1,2,3-benzotriazol-1-yl)-N-[2-(1-benzylpiperidin-4-yl)ethyl]piperidine-1-carboxamide] | 100 to 1000

Now from value to compound:

Row | Ki [nM] | Compound
13 | 10 to 100 | O=C(NCCC1CCN(Cc2ccccc2)CC1)C1(F)CCN(c2ccc(OC(F)(F)F)cc2)CC1 [10-55, N-[2-(1-benzylpiperidin-4-yl)ethyl]-4-fluoro-1-[4-(trifluoromethoxy)phenyl]piperidine-4-carboxamide]
14 | 10 to 100 | O=C(NCCC1CCN(Cc2ccccc2)CC1)C1CCN(c2ccc(OC(F)(F)F)cn2)CC1 [10-1, N-[2-(1-benzylpiperidin-4-yl)ethyl]-1-[5-(trifluoromethoxy)pyridin-2-yl]piperidine-4-carboxamide]
15 | 100 to 1000 | COc1ccc(N2CCC(C(=O)NCCC3CCN(Cc4ccccc4)CC3)CC2)cc1 [10-60, N-[2-(1-benzylpiperidin-4-yl)ethyl]-1-(4-methoxyphenyl)piperidine-4-carboxamide]
16 | 100 to 1000 | O=C(c1ccc(-c2ccccc2)cc1)N(C1CC1)C1CCN(Cc2ccccc2)CC1 [9-2, N-(1-benzylpiperidin-4-yl)-N-cyclopropyl-4-phenylbenzamide]
17 | 100 to 1000 | O=C(NCCC1CCN(Cc2ccc3[nH]ccc3c2)CC1)C1CCN(c2ccc(OC(F)(F)F)cc2)CC1 [11-22, N-{2-[1-(1H-indol-5-ylmethyl)piperidin-4-yl]ethyl}-1-[4-(trifluoromethoxy)phenyl]piperidine-4-carboxamide]
18 | 10 to 100 | COc1cc(N2CCN(C(=O)NCCC3CCN(Cc4ccccc4)CC3)[C@H](C)C2)ccc1C#N [22-28, (2R)-N-[2-(1-benzylpiperidin-4-yl)ethyl]-4-(4-cyano-3-methoxyphenyl)-2-methylpiperazine-1-carboxamide]
19 | 10 to 100 | N#Cc1cc(N2CCC(C(=O)NC[C@H](O)C3CCN(Cc4ccccc4)CC3)CC2)ccc1F [9-15, N-[(2R)-2-(1-benzylpiperidin-4-yl)-2-hydroxyethyl]-1-(3-cyano-4-fluorophenyl)piperidine-4-carboxamide]
20 | 10 to 100 | Cc1c(C(=O)NCCC2CCN(Cc3ccccc3)CC2)cnc2cc(-c3ccc(C#N)c(F)c3)nn12 [18-12]
21 | 10 to 100 | O=C(NCCC1CCN(Cc2ccccc2)CC1)C1CCN(c2ccc(OC(F)F)cc2)CC1 [10-76, N-[2-(1-benzylpiperidin-4-yl)ethyl]-1-[4-(difluoromethoxy)phenyl]piperidine-4-carboxamide]
22 | 10 to 100 | C[C@@H]1CN(c2ncc(C#N)cn2)C[C@H](C)N1C(=O)NCCC1CCN(C2Cc3ccccc3C2)CC1 [21-4, (2R,6S)-4-(5-cyanopyrimidin-2-yl)-N-{2-[l-(2,3-dihydro-1H-inden-2-yl)piperidin-4-yl]ethyl}-2,6-dimethylpiperazine-1-carboxamide]
23 | 10 to 100 | O=C(NCCC1CCN(Cc2ccccc2)CC1)C1(O)CCN(c2ccc(OC(F)(F)F)c(F)c2)CC1 [10-41, N-[2-(1-benzylpiperidin-4-yl)ethyl]-1-[3-fluoro-4-(trifluoromethoxy)phenyl]-4-hydroxypiperidine-4-carboxamide]
24 | 100 to 1000 | 4-(benzyloxy)-N-{2-[1-(pyridin-3-ylmethyl)piperidin-4-yl]ethyl}benzamide [11-20]
25 | 100 to 1000 | Cc1c(C(=O)NCCC2CCN(Cc3ccncc3)CC2)cnc2cc(-c3cccc(C(F)(F)F)c3)nn12 [19-5]
26 | 100 to 1000 | N#Cc1cc(F)ccc1N1CCC(C(=O)NCCC2CCN(Cc3ccccc3)CC2)CC1 [10-69, N-[2-(1-benzylpiperidin-4-yl)ethyl]-1-(2-cyano-4-fluorophenyl)piperidine-4-carboxamide]
27 | 10 to 100 | CN(C(=O)C1CCN(c2ccc(OC(F)(F)F)cc2)CC1)C1CCN(C2CCN(Cc3ccccc3)CC2)C1 (centres unmarked) [9-23, N-[1-(1-benzylpiperidin-4-yl)pyrrolidin-3-yl]-N-methyl-1-[4-(trifluoromethoxy)phenyl]piperidine-4-carboxamide]
28 | 100 to 1000 | O=C(NCCC1CCN(Cc2cccc(O)c2)CC1)c1ccc(Oc2ccccc2)cc1 [11-13, N-(2-{1-[(3-hydroxyphenyl)methyl]piperidin-4-yl}ethyl)-4-phenoxybenzamide]
29 | 100 to 1000 | CCN(C)C(=O)c1cnc(N2CCN(C(=O)NCCC3CCN(Cc4ccccc4)CC3)[C@H](C)C2)nc1 [27-9]
